Measured values taken from US12709608B2, “4-amino pyrimidine compounds for the treatment of cancer” (University of Rochester, priority 2021, dated 2026).
Entries after “also recorded” stand apart in the source; their conditions may differ. Read-outs that look alike come from different tables or passages of the source.

Tests used:
[1] = Biodistribution in brainstem and serum of mice, HPLC analysis of tissue extracts; format: in vivo; conditions: for concentration at 3 h: ip, 3 hours after intraperitoneal injection
Description: Study of JMJD3 demethylase inhibitors. […] Because of its promising anti-tumor activities, GSK-J4 has been used to treat many kinds of tumors in preclinical models including T-cell acute lymphoblastic leukemia, acute myeloid leukemia, diffuse large B-cell lymphoma, neuroblastoma, prostate cancer, gastric cancer, and DIPG. The major challenge of GSK-J4 in clinical development is that GSK-J4 is a prodrug and is rapidly converted to the active drug […] in vivo (FIG. 1). […] The development of novel compounds such as UR-8 offered desirable properties including good cellular and brain transport which is essential to improving in vivo efficacy.
UR-8 was administered by intraperitoneal injection to mice that were euthanized at 3 hours following UR-8 administration. Their brains were immediately resected, the brainstem was dissected from the surrounding brain, and the serum was collected by cardiac puncture. […] GSK-J1 was highly detected in either serum and brainstem in the mice treated with GSK-J4 in compared to that of the mice treated with UR-8. GSK-J4 was not detected in any specimens from mice treated with GSK-J4.

[2] = tested on: SF8628 intracranial (brainstem) tumor; test: In vivo anti-tumor activity in patient-derived K27M DIPG xenografted mice; conditions: for Survival, log-rank test P, control vs. compound: vs vehicle control (DMSO)
Description: Mice with SF8628 intracranial (brainstem) tumor were randomized to four treatment groups: vehicle control (DMSO, n=7), GSK-J4 (100 mg/kg/day for 10 consecutive days, n=8), UR-8 (100 mg/kg/day for 10 consecutive days, n=8), and UR-17 (100 mg/kg/day for 10 consecutive days, n=8). FIG. 3 (A) Upper: Growth plots for intracranial tumors using tumor bioluminescence values. Lower: Corresponding tumor bioluminescence intensity overlay images for representative vehicle-treated, GSK-J4, UR-17, and UR-8-treated mice. FIG. 3 (B) Corresponding survival plots for each experiment. Statistical analysis was performed using a log-rank test: control vs. GSK-J4, **P=0.0094; control vs. UR-8, ***P=0.0002; control vs. UR-17, ***P=0.0008; GSK-J4 vs. UR-8, ***P=0.0008; UR-8 vs. UR-17, *P=0.0197. FIG. 3 (c) Effects of UR-8 on cell proliferation.
UR-8 inhibited tumor growth and prolonged survival of mice bearing human DIPG xenografts—Based on the biological effects of UR-analogs in vitro, it was hypothesized that UR-analogs would suppress tumor growth and increase survival in mice with orthotopic (brainstem) human DIPG xenografts. To determine in vivo anti-tumor activity of UR-analogs, the mice were implanted with SF8628 DIPG cells in the brainstem and were treated with 100 mg/kg of GSK-J4, UR-8, and UR-17 for 10 consecutive days.

[3] = tested on: H3K27M DIPG cell lines (H3.3 K27M SF8628, H3.3 K27M DIPG-007, and H3.1 K27M SU-DIPGIV); test: Inhibition of DIPG cell growth (cytotoxic activity), 72 hours treatment; format: cell-based; conditions: Homo sapiens; three H3K27M mutant DIPG cell lines (SF8628, DIPG-007, SU-DIPGIV), treated for 72 hours
Description: Specifically, UR-8 and UR-17 induced dose dependent inhibition of the growth of K27M DIPG cells—To determine the potential of the UR-analog series, UR-8 and UR-17 were selected for initial studies on DIPG cell growth. Thus, three H3K27M DIPG cell lines (H3.3 K27M SF8628, H3.3 K27M DIPG-007, and H3.1 K27M SU-DIPGIV) were treated with GSK-J4 (R&D System), UR-8, and UR-17 for 72 hours.

[4] = SF8628 brainstem xenograft, 100 mg/kg for 10 consecutive days
[5] = SF8628 brainstem xenograft, 100 mg/kg/day for 10 consecutive days

SMILES	GSK-J1 concentration, Brainstem ([1]; GSK-J4 treated mice, analyte GSK-J1, 3 hours after administration)	GSK-J1 concentration, Serum ([1]; GSK-J4 treated mice, analyte GSK-J1, 3 hours after administration, intraperitoneal)	Brain penetration ratio (GSK-J1) ([1]; brainstem concentration as % of serum concentration, analyte GSK-J1, GSK-J4 treated mice)	Species found in brainstem tissue after GSK-J4 treatment ([1]; mice euthanized at 3 hours after completion of GSK-J4 treatment)	GSK-J4 detection in specimens from mice treated with GSK-J4 ([1]; serum and brainstem, HPLC)	Survival benefit of treated mice [2, 4]	Tumor growth rate (bioluminescence monitoring) [2, 4]	Survival, log-rank test P, control vs. compound [2, 5]	IC50 [3]	Brain penetration ratio (UR-8) ([1]; brainstem concentration as % of serum concentration, analyte UR-8, UR-8 treated mice)	Kp at 3 h ([1]; mouse, brainstem relative to serum, intraperitoneal, brainstem concentration as % of serum concentration, analyte UR-8, UR-8 treated mice, read-out: Brain penetration ratio (UR-8))	concentration at 3 h ([1]; mouse, brainstem, UR-8 treated mice, analyte UR-8, read-out: UR-8 concentration, Brainstem)	concentration at 3 h ([1]; mouse, serum, UR-8 treated mice, analyte UR-8, read-out: UR-8 concentration, Serum)	Survival, log-rank test P, GSK-J4 vs. UR-8 [2, 5]	Survival, log-rank test P, UR-8 vs. UR-17 [2, 5]	Therapeutic benefit compared with the other compounds ([2]; intracranial (brainstem) human DIPG xenografted mice, comparison with GSK-J4 / UR-17)
CCOC(=O)CCNc1cc(N2CCc3ccccc3CC2)nc(-c2ccccn2)n1 [GSK-J4]	141.5 ± 50.2 ng/mL	31250 ± 18879 ng/mL	0.61 ± 0.53%	only GSK-J1	not detected	substantial survival benefit	reduced tumor growth rate	0.0094	–	–	–	–	–	–	–	–
OCCCNc1cc(N2CCc3ccccc3CC2)nc(-c2ccccn2)n1 [UR-8, 3-((2-(pyridin-2-yl)-6-(1,2,4,5-tetrahydro-3H-benzo[d]azepin-3-yl)pyrimidin-4-yl)amino)propan-1-ol]	–	–	–	–	–	significant benefit	–	0.0002	4 to 6 µM	8.77 ± 2.37%	0.0877 ± 0.0237	410 ± 244 ng/mL	4460 ± 1580 ng/mL	0.0008	0.0197	outperforming either GSK-J4 or UR-17; also recorded: greater anti-tumor activity and survival benefit than that obtained by GSK-J4 treatment
